Assay results taken from patent US20070128217A1 (priority 2003, published 2007).

Assays:
[1] = system: antibodies in sera from SARS patients (sera 1a, 1b, 2, 6, 37, 62, London, SARS-yellow, SARS-green); format: binding, human; set-up: Binding of serum 6 to linear peptides of protein X1 of SARS-CoV Urbani / Binding of serum 37 to linear peptides of protein X1 of SARS-CoV Urbani / Binding of serum 6 to looped/cyclic peptide (PEPSCAN-ELISA) / Binding of serum 37 to looped/cyclic peptide (PEPSCAN-ELISA) / Binding of serum 37 to looped/cyclic peptides of protein X1 of SARS-CoV Urbani / Binding of serum 6 to linear peptides of protein X2 / Binding of serum 37 to linear peptides of protein X2 / Binding of serum 37 to looped/cyclic peptides of protein X2 of SARS-CoV Urbani / Binding of serum 6 to linear peptides of protein M of SARS-CoV Urbani / Binding of serum 37 to linear peptides of protein M of SARS-CoV Urbani / Binding of serum 6 to looped/cyclic peptides of protein M of SARS-CoV Urbani / Binding of serum 37 to looped/cyclic peptides of protein M of SARS-CoV Urbani / Binding of serum 6 to linear peptides of protein X3 of SARS-CoV Urbani / Binding of serum 37 to linear peptides of protein X3 of SARS-CoV Urbani / Binding of serum 37 to looped/cyclic peptides of protein X3 of SARS-CoV Urbani / Binding of serum 6 to linear peptides of protein X4 of SARS-CoV Urbani / Binding of serum 37 to linear peptides of protein X4 of SARS-CoV Urbani / Binding of serum 37 to looped/cyclic peptides of protein X4 of SARS-CoV Urbani / Binding of serum 6 to linear peptides of protein X5 of SARS-CoV Urbani / Binding of serum 37 to linear peptides of protein X5 of SARS-CoV Urbani / Binding of serum 37 to looped/cyclic peptides of protein X5 of SARS-CoV Urbani / Binding of serum 6 to linear peptides of protein N of SARS-CoV Urbani / Binding of serum 37 to linear peptides of protein N of SARS-CoV Urbani / Binding of serum 6 to linear peptide (PEPSCAN-ELISA) / Binding of serum 1a to looped/cyclic peptides of protein N of SARS-CoV Urbani / Binding of serum 1b to looped/cyclic peptides of protein N of SARS-CoV Urbani / Binding of serum 2 to looped/cyclic peptides of protein N of SARS-CoV Urbani / Binding of serum 6 to looped/cyclic peptides of protein N of SARS-CoV Urbani / Binding of serum 37 to looped/cyclic peptides of protein N of SARS-CoV Urbani / Binding of serum 62 to looped/cyclic peptides of protein N of SARS-CoV Urbani / Binding of serum London to looped/cyclic peptides of protein N of SARS-CoV Urbani / Binding of serum SARS-green to looped/cyclic peptides of protein N of SARS-CoV Urbani: unit not given here
[2] = system: control sera (pooled serum of ten healthy LUMC hospital workers; commercial negative donor pooled serum from the Dutch bloodbank); format: binding, human; set-up: Binding of Control serum LUMC to linear peptides / Binding of Control serum Blood-bank to linear peptides / Binding of Control serum LUMC to looped peptides / Binding of Control Serum Blood-Bank to Looped peptides / Binding of Control serum LUMC to linear peptides of the protein M of SARS-CoV Urbani / Binding of Control serum Blood-bank to linear peptides of the protein M of SARS-CoV Urbani / Binding of Control serum LUMC to looped peptides of the protein M of SARS-CoV Urbani / Binding of Control Serum Blood-Bank to Looped peptides of the protein M of SARS-CoV Urbani: unit not given here
[3] = system: recombinant human anti-SARS-CoV antibody 03-018; format: binding; set-up: Binding of antibody 03-018 to linear peptides of the N protein of SARS-CoV Urbani / Binding of antibody 03-018 to looped/cyclic peptides of the N protein of SARS-CoV Urbani: unit not given here
[4] = system: rabbit serum obtained by immunizing a rabbit with the SARS-CoV strain Frankfurt 1; format: binding; set-up: Binding of a rabbit serum to linear peptides / Binding of a rabbit serum to looped peptides / Rabbit serum linear peptides / Rabbit serum looped peptides / Binding of a rabbit serum to linear peptides of protein N of SARS-CoV Urbani (Rabbit serum linear peptides) / Binding of a rabbit serum to looped/cyclic peptides of protein N of SARS-CoV Urbani (Rabbit serum looped peptides): unit not given here

| Sequence | Binding of serum 1a to linear peptides of protein N of SARS-CoV Urbani [1] | Binding of serum 1a to looped/cyclic peptides of protein N of SARS-CoV Urbani [1] | Binding of serum 1b to linear peptides of protein N of SARS-CoV Urbani [1] | Binding of serum 1b to looped/cyclic peptides of protein N of SARS-CoV Urbani [1] | Binding of serum 2 to linear peptides of protein N of SARS-CoV Urbani [1] | Binding of serum 2 to looped/cyclic peptides of protein N of SARS-CoV Urbani [1] | Binding of serum 6 to linear peptides of protein N of SARS-CoV Urbani [1] | Binding of serum 6 to looped/cyclic peptides of protein N of SARS-CoV Urbani [1] | Binding of serum 37 to linear peptides of protein N of SARS-CoV Urbani [1] | Binding of serum 37 to looped/cyclic peptides of protein N of SARS-CoV Urbani [1] | Binding of serum 62 to linear peptides of protein N of SARS-CoV Urbani [1] | Binding of serum 62 to looped/cyclic peptides of protein N of SARS-CoV Urbani [1] | Binding of serum London to linear peptides of protein N of SARS-CoV Urbani [1] | Binding of serum London to looped/cyclic peptides of protein N of SARS-CoV Urbani [1] | Binding of serum SARS-green to looped/cyclic peptides of protein N of SARS-CoV Urbani [1] | Binding of serum SARS-yellow to looped/cyclic peptides of protein N of SARS-CoV Urbani [1] | Binding of antibody 03-018 to linear peptides of the N protein of SARS-CoV Urbani [3] | Binding of antibody 03-018 to looped/cyclic peptides of the N protein of SARS-CoV Urbani [3] | Binding of a rabbit serum to linear peptides of protein N of SARS-CoV Urbani (Rabbit serum linear peptides) [4] | Binding of a rabbit serum to looped/cyclic peptides of protein N of SARS-CoV Urbani (Rabbit serum looped peptides) [4] | other results |
| --- | --- | --- | --- | --- | --- | --- | --- | --- | --- | --- | --- | --- | --- | --- | --- | --- | --- | --- | --- | --- | --- |
| KEGIVWVATEGALNT | 0.2 | 0.3 | 0.1 | 0.2 | 0.2 | 0.4 | 0.2 | 0.2 | 0.7 | 0.6 | 0.6 | 0.5 | 0.4 | 0.4 | 0.3 | 0.5 | 0.1 | 0.2 | 0.1 | 0.4 | Binding of serum SARS-green to linear peptides of protein N of SARS-CoV Urbani [1]: 0.5; Binding of serum SARS-yellow to linear peptides of protein N of SARS-CoV Urbani [1]: 0.7; Binding of Control Serum Blood-Bank to Looped peptides [2]: 0.6; Binding of Control serum Blood-bank to linear peptides [2]: 0.7; Binding of Control serum LUMC to linear peptides [2]: 0.6; Binding of Control serum LUMC to looped peptides [2]: 0.7 |
| KGQQQQGQTVTKKSA |  | 0.2 |  | 0.1 |  | 0.2 |  | 0.1 |  | 0.4 |  | 0.3 |  | 0.3 | 0.0 | 0.1 | 0.1 | 0.2 | 0.2 | 0.0 | Binding of serum 1a to linear peptide (PEPSCAN-ELISA) [1]: 0.3; Binding of serum 1b to linear peptide (PEPSCAN-ELISA) [1]: 0.1; Binding of serum 2 to linear peptide (PEPSCAN-ELISA) [1]: 0.2; Binding of serum 6 to linear peptide (PEPSCAN-ELISA) [1]: 0.3; Binding of serum 37 to linear peptide (PEPSCAN-ELISA) [1]: 0.7; Binding of serum 62 to linear peptide (PEPSCAN-ELISA) [1]: 0.8; Binding of serum London to linear peptide (PEPSCAN-ELISA) [1]: 0.6; Binding of serum SARS-green to linear peptide (PEPSCAN-ELISA) [1]: 0.4; Binding of serum SARS-yellow to linear peptide (PEPSCAN-ELISA) [1]: 0.6; Binding of Control Serum Blood-Bank to Looped peptides [2]: 0.4; Binding of Control serum Blood-bank to linear peptides [2]: 1.0; Binding of Control serum LUMC to linear peptides [2]: 0.9; Binding of Control serum LUMC to looped peptides [2]: 0.4 |
| KHWPQIAQFAPSASA | 0.3 | 0.3 | 0.1 | 0.1 | 0.3 | 0.3 | 0.2 | 0.3 | 0.8 | 0.2 | 0.7 | 0.4 | 0.7 | 0.5 | 0.4 | 0.2 | 0.1 | 0.2 | 0.2 | 0.0 | Binding of serum SARS-green to linear peptides of protein N of SARS-CoV Urbani [1]: 0.6; Binding of serum SARS-yellow to linear peptides of protein N of SARS-CoV Urbani [1]: 0.8; Control Serum Blood-Bank Looped peptides [2]: 0.7; Control serum Blood-bank linear peptides [2]: 0.8; Control serum LUMC linear peptides [2]: 0.7; Control serum LUMC looped peptides [2]: 0.6 |
